The source of these data is patent publication US5147865A, “Phosphonopyrrolidine- and piperidine-containing pseudopeptides of the statin type, a process for their preparation and their use as medicaments against retroviruses” (Bayer Aktiengesellschaft, priority 1990, dated 1992).

The target of one assay is T1, HIV protease (Human immunodeficiency virus type 1 group M subtype B, UniProt P04585).
T1 construct: purified HIV protease was incubated with synthetic peptide
Kind of assay: HIV-specific protease enzyme test (RP-HPLC analysis of synthetic peptide cleavage). The assay is classed as biochemical. The settings on record: purified HIV protease, synthetic peptide imitating a Gag precursor cleavage site; concentration causing 50% inhibition of protease activity. The procedure: This is confirmed using an HIV-specific protease enzyme test.
The results for the examples listed below were determined by the HIV test system described in the following literature reports [cf. Hansen, J., Billich, S., Schulze, T., Sukrow, S. and Molling, K. (1988), EMBO Journal, Vol. 7, No. 6, pages 1785-1791]: purified HIV protease was incubated with synthetic peptide which imitated a cleavage site in the Gag precursor protein and represented an in vivo cleavage site of the HIV protease. The resulting cleavage products of the synthetic peptide were analysed by means of reverse phase high performance liquid chromatography (RP-HPLC). The IC50 values given relate to the substance concentration which causes a 50% inhibition of protease activity under the abovementioned test conditions.

Assay [1] deals with HIV-infected normal human blood lymphocytes (PBLs). Nature of the assay: HIV test in infected human blood lymphocytes (PBLs), syncytia formation, method of Pauwels et al. The assay is classed as cell-based. The settings on record: concentration at which 50% (about 10 syncytia) of the virus-induced syncytia were suppressed, day 3 to 6 after infection. The procedure: The HIV test was carried out with slight modifications by the method of Pauwels et al. (Journal of Virological Methods 20 (1988) 309-321).
Normal human blood lymphocytes (PBLs) were concentrated by means of Ficoll-Hypaque and stimulated with phytohaemagglutinin (90 μg/ml) and interleukin 2 (40 U/ml) in RPMI 1640 and 20% foetal calf serum. For infection with the infectious HIV, PBLs were pelleted and the cell pellet was then suspended in 1 ml of HIV virus adsorption solution and incubated at 37° C. for 1 hour.
The virus adsorption solution was centrifuged and the infected cell pellet was taken up in growth medium such that a concentration of 1×10^5 cells per ml was established. The cells infected in this way were pipetted into the wells of 96-well microtitre plates at a concentration of 1×10^4 cells/well. […]
The test batches were incubated at 37° C. until, in the untreated virus control, the syncytia formation typical for HIV occurred (between day 3 and 6 after infection), which was then evaluated microscopically.
The IC-50 values were determined as the concentration of the treated and infected cells at which 50% (about 10 syncytia) of the virus-induced syncytia were suppressed by treatment with the compound according to the invention.

A word on the IC50: it is the midpoint of a concentration-inhibition curve. Turning to `CCOP(=O)(OCC)C1CCCN1C(=O)C[C@@H](O)[C@H](CC1CCCCC1)NC(=O)OC(C)(C)C` (stereo partly drawn) [Example 28, Diethyl 1-{(3R,4S)-4-[(tert-butoxycarbonyl)amino]-5-cyclohexyl-3-hydroxypentanonyl]-(2R,S)-2-(pyrrolidinyl)phosphonate], the IC50 against HIV protease came to 10 µM. Molecule `CCOP(=O)(OCC)C1CCCN1C(=O)C[C@H](O)[C@H](CC1CCCCC1)NC(=O)[C@@H](NC(=O)[C@H](Cc1cccc2ccccc12)CS(=O)(=O)C(C)(C)C)C(C)C` (stereo partly drawn) [Example 14, Diethyl 1-{(3S,4S)-4-[(2S)-3-(tert-butylsulphonyl)2-(1-naphthylmethyl)propanoyl]-valinylamino-5-cyclohexyl-3-hydroxypentanoyl}-(2RorS)-2-(pyrrolidinyl)phosphonate] registered an IC50 on HIV protease of 0.5 µM. For `CCOP(=O)(OCC)C1CCCN1C(=O)C[C@H](O)[C@H](CC1CCCCC1)NC(=O)[C@H](Cc1ccccc1)NC(=O)Nc1cccc2ccccc12` (single isomer, unassigned) [Example 16, Diethyl 1-{(3S,4S)-5-cyclohexyl-3-hydroxy-4-(1-napthylaminocarbonyl)phenylalaninyl]aminopentanoyl}-(2R or S)-2-(pyrrolidinyl)phosphonate], the IC50 in assay [1] was 4.3 µM.
